Source: PubChem BioAssay AID2060891 (Molecular Pharmacology Branch, DTP, NCI, 2025)
Each block holds one molecule with its values, some of them ahead of it.

Tested on: K98450-129-R-PDC complex spheroid growth, percent test/control
Experiment: Anticancer human tumor K98450-129-R-PDC patient-derived colon adenocarcinoma cell line growth inhibition [RAS]
Details: for IC50: curve of first compound; for viability, T/C: stronger effect = lower value
Description: RAS pathway inhibitors in Combinations in Complex Spheroids
A high-throughput screen of multi-cell type tumor spheroids was designed to identify active combinations of RAS pathway inhibitors and targeted small molecules. Complex spheroids include a stromal component modeled by human endothelial cells (HUVEC) and fibroblasts modeled by human mesenchymal stem cells (MSCs). The concentration ranges selected for each drug and investigational agent were based upon clinically achievable concentrations if the clinical Cmax of the agent was known.
Compounds. The drugs and investigational agents: abemaciclib (NSC768073), cobimetinib (NSC768068), divarasib (GDC6063, NSC841802), docetaxel (NSC628503), GDC-1971 (RLY-1971, NSC841576), gemcitabine (NSC613327), inavolisib (NSC800729), ipatasertib (NSC767898), KB-0742 (NSC834161), MRTX-1133 (NSC836407), osimertinib (NSC779217), RMC-4630 (NSC839698), RMC-6236 (NSC851965), RMC-6291 (NSC852671), Ro-3306 (NSC812927), sapanisertib (NSC764658), SN-38 (NSC673596), staurosporine (NSC755774), SY5609 (NSC837396), and tovorafenib (DAY101, NSC766906), were obtained from the National Cancer Institute (NCI) Developmental Therapeutics Program Chemical Repository. The FDA-approved anticancer drug set is available from the NCI Developmental Therapeutics Program. […] The stock solutions were prepared in dimethyl sulfoxide (DMSO, Sigma-Aldrich, St. Louis, MO, cat. D2650) at 800-fold the tested concentration and stored at -70 degrees C prior to their use. All drugs and investigational agents were tested over a range starting from a high concentration at or near the clinical Cmax and decreasing in half-log increments. If the clinical Cmax for an agent had not been determined, the highest concentration tested was 10 microM.
Cell Culture. All cells were maintained in an incubator at 37 degrees C and 5% CO2 with 95% humidity. The PDC lines were cultured according to standard operating procedures established by the NCI PDMR. All PDCs were thawed and cultured in Matrigel-coated flasks prepared with a working solution of 1X Ham's F-12 nutrient mix, without supplementation (Invitrogen, Waltham, MA, cat. 11765054), 100 U/mL penicillin-streptomycin (Invitrogen, cat. 15140122), and 2.5% Matrigel (Corning Inc., Corning, NY, cat. 354248) for the first three passages. The 362531-283-R-J2-PDC and 782815-120-R-J1-PDC lines were cultured in 6C/Colon 1B media, which includes advanced DMEM/F-12 (Thermo Fisher Scientific, cat. 12634028), 10 mM HEPES (Thermo Fisher Scientific, cat. 15630080), 1X GlutaMAX supplement (Thermo Fisher Scientific, cat. 35050061), 0.1 mg/mL primocin (InvivoGen, San Diego, CA, cat. ant-pm-2), 10% defined fetal bovine serum, heat inactivated (HyClone Laboratories Inc., Logan, UT, cat. SH30070.03HI), 50% L-WRN conditioned media (ATCC, cat. CRL-3276), 1.25 mM N-Acetyl-L-cysteine (Sigma-Aldrich, cat. A9165), 10 mM nicotinamide (Sigma-Aldrich, cat. N0636), 1X B-27 supplement (Thermo Fisher Scientific, cat. 17504044), 1X N-2 supplement (Thermo Fisher Scientific, cat. 17502048), 50 ng/mL human EGF (Thermo Fisher Scientific, cat. PHG0311), and 10 microM Y-27632 dihydrochloride (Tocris Bioscience, cat. 1254). The K12877-001-R-J1-PDC line was cultured in 6I media, which includes all 6C/Colon 1B media plus 10 ng/mL human FGF-10 (PeproTech, cat. 100-26), 1 ng/mL human FGF-2 (PeproTech, cat. 100-18B), 1 µM prostaglandin E2 (Tocris Bioscience, cat. 2296), […] hydrocortisone (Sigma-Aldrich, cat. H4001), and […] bovine insulin (Sigma-Aldrich, cat. I6634). The K86415-001-R-J1-PDC line was cultured in 6D media, which includes all 6C/Colon 1B media components minus the L-WRN conditioned media. The 485176-168-R4-J1-PDC was cultured in PANC media, which includes all 6C/Colon 1B media plus 100 ng/mL human FGF-10 (PeproTech, cat. 100-26), 500 nM SB-431542 (Selleckchem, cat. S1067), and 10 nM gastrin (Tocris Bioscience, cat. 3006). […]

[1] = second compound 0.0316 µM, first compound 0.0316 µM
[2] = second compound 0.0316 µM, first compound 0.1 µM
[3] = second compound 0.0316 µM, first compound 0.316 µM
[4] = second compound 0.0316 µM, first compound 1 µM
[5] = second compound 0.0316 µM, first compound 3.16 µM
[6] = second compound 0.0316 µM, first compound 10 µM
[7] = second compound 0.1 µM, first compound 0.0316 µM
[8] = second compound 0.1 µM, first compound 0.1 µM
[9] = second compound 0.1 µM, first compound 0.316 µM
[10] = second compound 0.1 µM, first compound 1 µM
[11] = second compound 0.1 µM, first compound 3.16 µM
[12] = second compound 0.1 µM, first compound 10 µM
[13] = second compound 0.316 µM, first compound 0.0316 µM
[14] = second compound 0.316 µM, first compound 0.1 µM
[15] = second compound 0.316 µM, first compound 0.316 µM
[16] = second compound 0.316 µM, first compound 1 µM
[17] = second compound 0.316 µM, first compound 3.16 µM
[18] = second compound 0.316 µM, first compound 10 µM
[19] = second compound 1 µM, first compound 0.0316 µM
[20] = second compound 1 µM, first compound 0.1 µM
[21] = second compound 1 µM, first compound 0.316 µM
[22] = second compound 1 µM, first compound 1 µM
[23] = second compound 1 µM, first compound 3.16 µM
[24] = second compound 1 µM, first compound 10 µM
[25] = second compound 3.16 µM, first compound 0.0316 µM
[26] = second compound 3.16 µM, first compound 0.1 µM
[27] = second compound 3.16 µM, first compound 0.316 µM
[28] = second compound 3.16 µM, first compound 1 µM
[29] = second compound 3.16 µM, first compound 3.16 µM
[30] = second compound 3.16 µM, first compound 10 µM
[31] = second compound 10 µM, first compound 0.0316 µM
[32] = second compound 10 µM, first compound 0.1 µM
[33] = second compound 10 µM, first compound 0.316 µM
[34] = second compound 10 µM, first compound 1 µM
[35] = second compound 10 µM, first compound 3.16 µM
[36] = second compound 10 µM, first compound 10 µM
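Also: spheroids exposed to agents for seven days before the viability readout.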
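For viability, T/C in this document: luminescence used as a proxy for viable cell amount.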

IC50 (second compound 0.0316 µM): > 10 µM
IC50 (second compound 0.1 µM): > 10 µM
IC50 (second compound 0.316 µM): > 10 µM
IC50 (second compound 1 µM): > 10 µM
IC50 (second compound 3.16 µM): > 10 µM
IC50 (second compound 10 µM): > 10 µM
SMILES: CC(C)NCC(C(=O)N1CCN(c2ncnc3c2C(C)CC3O)CC1)c1ccc(Cl)cc1 (stereo unspecified) + C#Cc1c(F)ccc2cc(O)cc(-c3ncc4c(N5CC6CCC(C5)N6)nc(OCC56CCCN5CC(F)C6)nc4c3F)c12
viability, T/C [1]: 110%
viability, T/C [2]: 106%
viability, T/C [3]: 92.9%
viability, T/C [4]: 99.2%
viability, T/C [5]: 104%
viability, T/C [6]: 96.7%
viability, T/C [7]: 110%
viability, T/C [8]: 96.9%
viability, T/C [9]: 106%
viability, T/C [10]: 98%
viability, T/C [11]: 113%
viability, T/C [12]: 103%
viability, T/C [13]: 105%
viability, T/C [14]: 96.1%
viability, T/C [15]: 110%
viability, T/C [16]: 97.3%
viability, T/C [17]: 104%
viability, T/C [18]: 98.6%
viability, T/C [19]: 99.5%
viability, T/C [20]: 96.8%
viability, T/C [21]: 96.1%
viability, T/C [22]: 95.7%
viability, T/C [23]: 104%
viability, T/C [24]: 99.2%
viability, T/C [25]: 95.7%
viability, T/C [26]: 86.5%
viability, T/C [27]: 97.3%
viability, T/C [28]: 93.8%
viability, T/C [29]: 98.7%
viability, T/C [30]: 88.2%
viability, T/C [31]: 83.9%
viability, T/C [32]: 82.6%
viability, T/C [33]: 81.9%
viability, T/C [34]: 85.9%
viability, T/C [35]: 91.5%
viability, T/C [36]: 81.9%

IC50 (second compound 0.0316 µM): > 0.1 µM
IC50 (second compound 0.1 µM): > 0.1 µM
IC50 (second compound 0.316 µM): > 0.1 µM
IC50 (second compound 1 µM): > 0.1 µM
IC50 (second compound 3.16 µM): > 0.1 µM
IC50 (second compound 10 µM): > 0.1 µM
SMILES: CC(C)n1nc(-c2ccc3oc(N)nc3c2)c2c(N)ncnc21 + C#Cc1c(F)ccc2cc(O)cc(-c3ncc4c(N5CC6CCC(C5)N6)nc(OCC56CCCN5CC(F)C6)nc4c3F)c12
viability, T/C (second compound 0.0316 µM, first compound 0.000316 µM): 110%
viability, T/C (second compound 0.0316 µM, first compound 0.001 µM): 104%
viability, T/C (second compound 0.0316 µM, first compound 0.00316 µM): 101%
viability, T/C (second compound 0.0316 µM, first compound 0.01 µM): 98.4%
viability, T/C [1]: 86.5%
viability, T/C [2]: 78.3%
viability, T/C (second compound 0.1 µM, first compound 0.000316 µM): 114%
viability, T/C (second compound 0.1 µM, first compound 0.001 µM): 103%
viability, T/C (second compound 0.1 µM, first compound 0.00316 µM): 102%
viability, T/C (second compound 0.1 µM, first compound 0.01 µM): 95.9%
viability, T/C [7]: 89.2%
viability, T/C [8]: 74.4%
viability, T/C (second compound 0.316 µM, first compound 0.000316 µM): 109%
viability, T/C (second compound 0.316 µM, first compound 0.001 µM): 105%
viability, T/C (second compound 0.316 µM, first compound 0.00316 µM): 104%
viability, T/C (second compound 0.316 µM, first compound 0.01 µM): 98.8%
viability, T/C [13]: 93.1%
viability, T/C [14]: 71.9%
viability, T/C (second compound 1 µM, first compound 0.000316 µM): 106%
viability, T/C (second compound 1 µM, first compound 0.001 µM): 107%
viability, T/C (second compound 1 µM, first compound 0.00316 µM): 95.1%
viability, T/C (second compound 1 µM, first compound 0.01 µM): 93.8%
viability, T/C [19]: 82.9%
viability, T/C [20]: 74.7%
viability, T/C (second compound 3.16 µM, first compound 0.000316 µM): 95.6%
viability, T/C (second compound 3.16 µM, first compound 0.001 µM): 94.8%
viability, T/C (second compound 3.16 µM, first compound 0.00316 µM): 92%
viability, T/C (second compound 3.16 µM, first compound 0.01 µM): 84.4%
viability, T/C [25]: 80.1%
viability, T/C [26]: 66.7%
viability, T/C (second compound 10 µM, first compound 0.000316 µM): 84.9%
viability, T/C (second compound 10 µM, first compound 0.001 µM): 82.9%
viability, T/C (second compound 10 µM, first compound 0.00316 µM): 87.4%
viability, T/C (second compound 10 µM, first compound 0.01 µM): 77%
viability, T/C [31]: 69.6%
viability, T/C [32]: 62.2%

IC50 (second compound 0.0316 µM): > 10 µM
IC50 (second compound 0.1 µM): > 10 µM
IC50 (second compound 0.316 µM): > 10 µM
IC50 (second compound 1 µM): > 10 µM
IC50 (second compound 3.16 µM): > 10 µM
IC50 (second compound 10 µM): > 10 µM
SMILES: C[C@@H](NC(=O)c1ncnc(N)c1Cl)c1ncc(C(=O)Nc2cc(C(F)(F)F)c(Cl)cn2)s1 + C#Cc1c(F)ccc2cc(O)cc(-c3ncc4c(N5CC6CCC(C5)N6)nc(OCC56CCCN5CC(F)C6)nc4c3F)c12
viability, T/C [1]: 114%
viability, T/C [2]: 117%
viability, T/C [3]: 118%
viability, T/C [4]: 126%
viability, T/C [5]: 129%
viability, T/C [6]: 103%
viability, T/C [7]: 115%
viability, T/C [8]: 126%
viability, T/C [9]: 130%
viability, T/C [10]: 127%
viability, T/C [11]: 128%
viability, T/C [12]: 106%
viability, T/C [13]: 112%
viability, T/C [14]: 121%
viability, T/C [15]: 120%
viability, T/C [16]: 127%
viability, T/C [17]: 130%
viability, T/C [18]: 106%
viability, T/C [19]: 114%
viability, T/C [20]: 115%
viability, T/C [21]: 122%
viability, T/C [22]: 112%
viability, T/C [23]: 126%
viability, T/C [24]: 102%
viability, T/C [25]: 100%
viability, T/C [26]: 108%
viability, T/C [27]: 115%
viability, T/C [28]: 115%
viability, T/C [29]: 114%
viability, T/C [30]: 92.7%
viability, T/C [31]: 95.8%
viability, T/C [32]: 108%
viability, T/C [33]: 114%
viability, T/C [34]: 100%
viability, T/C [35]: 111%
viability, T/C [36]: 86.2%
